Experimental data published in patent publication US11629171B2, “Beta-hairpin peptidomimetics” (POLYPHOR AG, priority 2017, dated 2023).
≈ marks a conversion by molar mass, not a printed value. Where a SMILES comes first, the peptide text is derived from it. Bridges are numbered along the chain shown (N, C = ends). Roman numbers before positions name the chains, in order. [ ]: non-standard residue; d: D form. Leu(3R-OH) = CC(C)[C@@H](O)[C@H](N)C(=O)O; dThr(ol) = C[C@H](O)[C@@H](N)CO; Thr(ol) = C[C@@H](O)[C@H](N)CO; Tle = CC(C)(C)[C@H](N)C(=O)O; Hiv = CC(C)[C@H](O)C(=O)O; dDab = NCC[C@@H](N)C(=O)O; hSer = N[C@@H](CCO)C(=O)O; Dab = NCC[C@H](N)C(=O)O; Dap = NC[C@H](N)C(=O)O

How the values were obtained:
Assay type in all cases: cell-based
[1] = test system: Acinetobacter baumannii 872842; conditions: 872842
Method in brief: (§1)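 Standard CLSI microdilution testing: bacterial suspensions standardized against 0.5 McFarland to about 10^6 CFU/mL in MH-II broth meet serially halved peptide concentrations in broth containing 0.002% polysorbate 80; incubation lasts 18-20 h at 35° C before the MIC is scored.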

[2] = test system: Acinetobacter baumannii DSM 30008; conditions: DSM 30008
Method in brief: as §1

[3] = test system: Enterobacter cloacae 848840; conditions: 848840
Method in brief: as §1

Escherichia coli 926415 = conditions: 926415
Method in brief: as §1

[4] = test system: Escherichia coli ATCC 25922; conditions: ATCC 25922
Method in brief: as §1

[5] = test system: Klebsiella pneumoniae 968733; conditions: 968733
Method in brief: as §1

[6] = test system: Klebsiella pneumoniae SSI #3010; conditions: SSI #3010
Method in brief: as §1

[7] = test system: Pseudomonas aeruginosa ATCC 27853; conditions: ATCC 27853
Method in brief: as §1

[8] = test system: human red blood cells (hRBC); experiment: Hemolysis; conditions: red cells of human, 1 h, 200
Method in brief: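 Percent lysis of human red cells was derived from OD540 of the supernatant, referenced to 2% Triton X-100, after a 1 h, 37° C incubation of 20% (v/v) cells with 200 μg/mL peptide.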

| Structure (SMILES) | MIC [1] | MIC [2] | MIC [3] | MIC (Escherichia coli 926415) | MIC [4] | MIC [5] | MIC [6] | MIC [7] | Hemolysis at 200 μg/mL [8] |
| --- | --- | --- | --- | --- | --- | --- | --- | --- | --- |
| CC(=O)N[C@H](C(=O)N[C@H]1CSSC[C@@H](C(=O)N[C@H](CO)[C@@H](C)O)NC(=O)[C@H](C(C)(C)C)NC(=O)[C@H](CO)NC(=O)[C@H](Cc2c[nH]c3ccccc23)NC(=O)[C@H](CO)NC(=O)[C@@H](CCN)NC(=O)[C@H](CCC(=O)N[C@@H](CCN)C(=O)N[C@H](C(=O)N[C@@H](CN)C(=O)N[C@H]2CCNC(=O)[C@H]([C@@H](C)O)NC(=O)[C@H](CCN)NC(=O)[C@H](CCN)NC(=O)[C@H](CC(C)C)NC(=O)[C@@H](CC(C)C)NC(=O)[C@H](CCN)NC2=O)[C@@H](C)O)NC(=O)[C@H](CN)NC(=O)[C@H](Cc2ccc(O)cc2)NC1=O)C(C)C [Ex. 123] (I: Ac-VCY[Dap]E[dDab]SWS[Tle]C[Thr(ol)] / II: [Dab]T[Dap][Dab][Dab][dL]L[Dab][Dab]T; disulfide I:2-I:11; amide I:5-II:N; lactam II:4-II:C) | 0.03125 µg/mL (≈ 0.013 µM) | 0.01562 µg/mL (≈ 0.00651 µM) | 0.0625 µg/mL (≈ 0.026 µM) | 0.03125 µg/mL (≈ 0.013 µM) | 0.01562 µg/mL (≈ 0.00651 µM) | 0.0625 µg/mL (≈ 0.026 µM) | 0.0625 µg/mL (≈ 0.026 µM) | 0.0625 µg/mL (≈ 0.026 µM) | <1% |
| CC(=O)N[C@H](C(=O)N[C@H]1CSSC[C@@H](C(=O)N[C@@H](CO)[C@H](C)O)NC(=O)[C@H](C(C)(C)C)NC(=O)[C@H](CO)NC(=O)[C@H](Cc2c[nH]c3ccccc23)NC(=O)[C@H](CO)NC(=O)[C@@H](CCN)NC(=O)[C@H](CCC(=O)N[C@@H](CCN)C(=O)N[C@H](C(=O)N[C@@H](CN)C(=O)N[C@H]2CCNC(=O)[C@H]([C@@H](C)O)NC(=O)[C@H](CCN)NC(=O)[C@H](CCN)NC(=O)[C@H](CC(C)C)NC(=O)[C@@H](CC(C)C)NC(=O)[C@H](CCN)NC2=O)[C@@H](C)O)NC(=O)[C@H](CN)NC(=O)[C@H](Cc2ccc(O)cc2)NC1=O)C(C)C [Ex. 124] (I: Ac-VCY[Dap]E[dDab]SWS[Tle]C[dThr(ol)] / II: [Dab]T[Dap][Dab][Dab][dL]L[Dab][Dab]T; disulfide I:2-I:11; amide I:5-II:N; lactam II:4-II:C) | 0.0625 µg/mL (≈ 0.026 µM) | 0.0625 µg/mL (≈ 0.026 µM) | 0.125 µg/mL (≈ 0.0521 µM) | 0.25 µg/mL (≈ 0.104 µM) | 0.0625 µg/mL (≈ 0.026 µM) | 0.25 µg/mL (≈ 0.104 µM) | 0.125 µg/mL (≈ 0.0521 µM) | 0.125 µg/mL (≈ 0.0521 µM) | 2% |
| CC(=O)N[C@@H](CCN)C(=O)N[C@H](C(=O)N[C@H]1CSSC[C@@H](C(N)=O)NC(=O)[C@H](C(C)(C)C)NC(=O)[C@H](CO)NC(=O)[C@H](Cc2c[nH]c3ccccc23)NC(=O)[C@H](CO)NC(=O)[C@@H](CCN)NC(=O)[C@H](CCC(=O)N[C@@H](CCN)C(=O)N[C@H](C(=O)N[C@@H](CN)C(=O)N[C@H]2CCNC(=O)[C@H]([C@@H](C)O)NC(=O)[C@H](CCN)NC(=O)[C@H](CCN)NC(=O)[C@H](CC(C)C)NC(=O)[C@@H](CC(C)C)NC(=O)[C@H](CCN)NC2=O)[C@@H](C)O)NC(=O)[C@H](CN)NC(=O)[C@H](Cc2ccc(O)cc2)NC1=O)C(C)C [Ex. 125] (I: Ac-[Dab]VCY[Dap]E[dDab]SWS[Tle]C-NH2 / II: [Dab]T[Dap][Dab][Dab][dL]L[Dab][Dab]T; disulfide I:3-I:12; amide I:6-II:N; lactam II:4-II:C) | 0.125 µg/mL (≈ 0.0518 µM) | 0.125 µg/mL (≈ 0.0518 µM) | 0.125 µg/mL (≈ 0.0518 µM) | 0.0625 µg/mL (≈ 0.0259 µM) | 0.0625 µg/mL (≈ 0.0259 µM) | 0.125 µg/mL (≈ 0.0518 µM) | 0.0625 µg/mL (≈ 0.0259 µM) | 0.125 µg/mL (≈ 0.0518 µM) | 2% |
| CC(=O)N[C@@H](CCN)C(=O)N[C@H](C(=O)N[C@H]1CSSC[C@@H](C(N)=O)NC(=O)[C@H](C(C)(C)C)NC(=O)[C@H](CO)NC(=O)[C@H](Cc2c[nH]c3ccccc23)NC(=O)[C@H](CCN)NC(=O)[C@@H](CCN)NC(=O)[C@H](CCC(=O)N[C@@H](CCN)C(=O)N[C@H](C(=O)N[C@@H](CN)C(=O)N[C@H]2CCNC(=O)[C@H]([C@@H](C)O)NC(=O)[C@H](CCN)NC(=O)[C@H](CCN)NC(=O)[C@H](CC(C)C)NC(=O)[C@@H](CC(C)C)NC(=O)[C@H](CCN)NC2=O)[C@@H](C)O)NC(=O)[C@H](CN)NC(=O)[C@H](Cc2ccc(O)cc2)NC1=O)C(C)C [Ex. 126] (I: Ac-[Dab]VCY[Dap]E[dDab][Dab]WS[Tle]C-NH2 / II: [Dab]T[Dap][Dab][Dab][dL]L[Dab][Dab]T; disulfide I:3-I:12; amide I:6-II:N; lactam II:4-II:C) | 0.25 µg/mL (≈ 0.103 µM) | 0.125 µg/mL (≈ 0.0515 µM) | 0.5 µg/mL (≈ 0.206 µM) | 0.125 µg/mL (≈ 0.0515 µM) | 0.125 µg/mL (≈ 0.0515 µM) | 0.25 µg/mL (≈ 0.103 µM) | 0.125 µg/mL (≈ 0.0515 µM) | 0.25 µg/mL (≈ 0.103 µM) | <1% |
| CC(C)C[C@@H]1NC(=O)[C@H](CCN)NC(=O)[C@H](CCN)NC(=O)[C@H](CC(C)C)NC(=O)[C@@H](CC(C)C)NC(=O)[C@H](CCN)NC(=O)[C@@H](NC(=O)[C@@H](CCN)NC(=O)CC[C@@H]2NC(=O)[C@H](CCN)NC(=O)[C@H](Cc3ccc(O)cc3)NC(=O)[C@@H](NC(=O)[C@@H](O)C(C)C)CSSC[C@@H](C(=O)N[C@H](CO)[C@@H](C)O)NC(=O)[C@H](C(C)(C)C)NC(=O)[C@H](CO)NC(=O)[C@H](Cc3c[nH]c4ccccc34)NC(=O)[C@H](CCO)NC(=O)[C@@H](CCN)NC2=O)CCNC1=O [Ex. 127] (I: H-[Hiv]CY[Dab]E[dDab][hSer]WS[Tle]C[Thr(ol)] / II: [dDab][Dab][Dab][dL]L[Dab][Dab]L; disulfide I:2-I:11; amide I:5-II:N; lactam II:2-II:C) | 0.0625 µg/mL (≈ 0.0283 µM) | 0.0625 µg/mL (≈ 0.0283 µM) | 0.125 µg/mL (≈ 0.0565 µM) | 0.125 µg/mL (≈ 0.0565 µM) | 0.0625 µg/mL (≈ 0.0283 µM) | 0.5 µg/mL (≈ 0.226 µM) | 0.25 µg/mL (≈ 0.113 µM) | 0.5 µg/mL (≈ 0.226 µM) | 2% |
| CC(=O)N[C@H](C(=O)N[C@H]1CSSC[C@@H](C(=O)N[C@@H](CO)C(N)=O)NC(=O)[C@H](C(C)(C)C)NC(=O)[C@H](CO)NC(=O)[C@H](Cc2c[nH]c3ccccc23)NC(=O)[C@H](CO)NC(=O)[C@@H](CCN)NC(=O)[C@H](CCC(=O)N[C@@H](CCN)C(=O)N[C@H](C(=O)N[C@@H](CN)C(=O)N[C@H]2CCNC(=O)[C@H]([C@@H](C)O)NC(=O)[C@H](CCN)NC(=O)[C@H](CCN)NC(=O)[C@H](CC(C)C)NC(=O)[C@@H](CC(C)C)NC(=O)[C@H](CCN)NC2=O)[C@@H](C)O)NC(=O)[C@H](CO)NC(=O)[C@H](Cc2ccc(O)cc2)NC1=O)C(C)C [Ex. 132] (I: Ac-VCYSE[dDab]SWS[Tle]CS-NH2 / II: [Dab]T[Dap][Dab][Dab][dL]L[Dab][Dab]T; disulfide I:2-I:11; amide I:5-II:N; lactam II:4-II:C) | 0.0625 µg/mL (≈ 0.026 µM) | 0.03125 µg/mL (≈ 0.013 µM) | 0.125 µg/mL (≈ 0.0521 µM) | 0.0625 µg/mL (≈ 0.026 µM) | 0.03125 µg/mL (≈ 0.013 µM) | 0.125 µg/mL (≈ 0.0521 µM) | 0.125 µg/mL (≈ 0.0521 µM) | 0.125 µg/mL (≈ 0.0521 µM) | 2% |
| CC(=O)N[C@H](C(=O)N[C@H]1CSSC[C@@H](C(=O)N[C@@H](CO)C(N)=O)NC(=O)[C@H](C(C)(C)C)NC(=O)[C@H](CO)NC(=O)[C@H](Cc2c[nH]c3ccccc23)NC(=O)[C@H](CCN)NC(=O)[C@@H](CCN)NC(=O)[C@H](CCC(=O)N[C@@H](CCN)C(=O)N[C@H](C(=O)N[C@@H](CN)C(=O)N[C@H]2CCNC(=O)[C@H]([C@@H](C)O)NC(=O)[C@H](CCN)NC(=O)[C@H](CCN)NC(=O)[C@H](CC(C)C)NC(=O)[C@@H](CC(C)C)NC(=O)[C@H](CCN)NC2=O)[C@@H](C)O)NC(=O)[C@H](CO)NC(=O)[C@H](Cc2ccc(O)cc2)NC1=O)C(C)C [Ex. 133] (I: Ac-VCYSE[dDab][Dab]WS[Tle]CS-NH2 / II: [Dab]T[Dap][Dab][Dab][dL]L[Dab][Dab]T; disulfide I:2-I:11; amide I:5-II:N; lactam II:4-II:C) | 0.03125 µg/mL (≈ 0.013 µM) | 0.0625 µg/mL (≈ 0.0259 µM) | 0.25 µg/mL (≈ 0.104 µM) | 0.0625 µg/mL (≈ 0.0259 µM) | 0.03125 µg/mL (≈ 0.013 µM) | 0.125 µg/mL (≈ 0.0518 µM) | 0.125 µg/mL (≈ 0.0518 µM) | 0.25 µg/mL (≈ 0.104 µM) | 2% |
| CC(=O)N[C@H](C(=O)N[C@H]1CSSC[C@@H](C(=O)N[C@H](C(N)=O)[C@@H](C)O)NC(=O)[C@H](C(C)(C)C)NC(=O)[C@H](CCC(=O)O)NC(=O)[C@H](Cc2c[nH]c3ccccc23)NC(=O)[C@H](CCN)NC(=O)[C@@H](CCN)NC(=O)[C@H](CCC(=O)N[C@@H](CCN)C(=O)N[C@H](C(=O)N[C@@H](CN)C(=O)N[C@H]2CCNC(=O)[C@H]([C@@H](C)O)NC(=O)[C@H](CCN)NC(=O)[C@H](CCN)NC(=O)[C@H]([C@H](O)C(C)C)NC(=O)[C@@H](CC(C)C)NC(=O)[C@H](CCN)NC2=O)[C@@H](C)O)NC(=O)[C@H](CO)NC(=O)[C@H](Cc2ccc(O)cc2)NC1=O)C(C)C [Ex. 134] (I: Ac-VCYSE[dDab][Dab]WE[Tle]CT-NH2 / II: [Dab]T[Dap][Dab][Dab][dL][Leu(3R-OH)][Dab][Dab]T; disulfide I:2-I:11; amide I:5-II:N; lactam II:4-II:C) | 0.0625 µg/mL (≈ 0.0252 µM) | 0.03125 µg/mL (≈ 0.0126 µM) | 0.125 µg/mL (≈ 0.0503 µM) | 0.125 µg/mL (≈ 0.0503 µM) | 0.03125 µg/mL (≈ 0.0126 µM) | 0.125 µg/mL (≈ 0.0503 µM) | 0.03125 µg/mL (≈ 0.0126 µM) | 0.125 µg/mL (≈ 0.0503 µM) | 3% |
